The values below come from PubChem BioAssay (NCI).

Molecules are shown by their SMILES.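 Results reflect a 48-hour exposure of cells in 96-well plates to compound at five concentrations. GI50 = concentration required for 50% inhibition of growth. TGI marks complete inhibition of growth.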

Holding throughout (experiment): NCI tumour cell line growth inhibition, 48 h
Assay [1] has as its system SF-539 CNS.
Assay [2] relates to 786-0 renal.
Assay [3] deals with U251 CNS.
Assay [4] concerns OVCAR-8 ovarian.
For assay [5], the system named is NCI-H226 lung.
Assay [6] has as its system A549 NSCLC.
Assay [7] has as its system EKVX NSCLC.
Assay [8] relates to SNB-75 CNS.
Assay [9] deals with NCI-H23 lung.
The test system of assay [10] is UACC-62 melanoma.

With `Cc1cc(N(CCC#N)CCC#N)ccc1N=Nc1ccc([N+](=O)[O-])cc1`, the TGI in assay [1] is above 100 µM; in assay [2], above 100 µM; in assay [3], 36.1 µM; in assay [4] it was 56.9 µM; in [5] it was above 100 µM; in [6] it was above 100 µM. Moreover, the TGI in assay [7] is above 100 µM; in assay [8], above 10 µM; in [9], above 100 µM; in assay [10] it was above 10 µM.
Consider `Cc1cc(C)c2c(c1C)CN1CN2Cc2c(C)c(C)cc(C)c21`, for which the TGI in assay [1], in assay [2], in assay [3], in [4], in [5] and in [6] was above 100 µM throughout. In addition, the TGI in [7] is above 100 µM; in assay [8], 58.1 µM; in [9], above 100 µM; in assay [10], above 100 µM.
As to `CC(=O)OCC1OC(n2cnc3c(I)nc(I)nc32)C(OC(C)=O)C1OC(C)=O` (centres undefined), the TGI in [1] was found to be 29.6 µM; in assay [2], 27.8 µM; in assay [3], 22.9 µM; in assay [4], 24.1 µM; in assay [5], 35.5 µM; in assay [6], 32.7 µM. Moreover, the TGI in assay [7] is 33.3 µM; in [8], 30.2 µM; in [9], 16.7 µM; in assay [10], 27.2 µM.
For `CC1(C)CC[C@]2(C(=O)O)CCC3(C)C(=CCC4[C@@]5(C)CC[C@H](OC6OCC(O)C(O)C6OC6OC(CO)C(O)C(O)C6O)C(C)(C)C5CC[C@]43C)C2C1` (some centres undefined), the TGI was found to be 4.31 µM in assay [1]; 4.02 µM in assay [2]; 3.4 µM in assay [3]; 4.12 µM in [4]; 3.38 µM in assay [5]; 3.53 µM in [6]. The TGI amounted to 3.85 µM in assay [7], 4.6 µM in assay [8], 4.2 µM in [9] and 3.42 µM in [10].
As for `CCN1CCC(O)(c2ccccc2)C(C(=O)c2ccccc2)C1` (centres undefined), the TGI in assay [1] is above 100 µM; in assay [2], 31 µM; in assay [3] it was above 100 µM; in [4], 63.7 µM; in [5], 99.2 µM; in [6], above 100 µM. For the same molecule, the TGI is above 76.4 µM in assay [7], above 100 µM in assay [8], 97.5 µM in assay [9] and above 69.2 µM in assay [10].
For the molecule `COc1cc(-c2cn(-c3ccc(Cl)cc3)c(=O)n2-c2ccccc2)cc(OC)c1OC`, the GI50 in assay [1] was 61.5 µM; in [2], above 83.1 µM; in assay [3] it was 33.7 µM; in assay [4], 40.8 µM; in assay [5], 82.1 µM; in assay [6], above 46.6 µM. In addition, the GI50 in [7] was above 100 µM; in assay [8] it was 5.51 µM; in assay [9], above 100 µM; in assay [10], 32.5 µM. In addition, the TGI in assay [1], in assay [2], in assay [3], in assay [4], in [5] and in assay [6] was above 100 µM in each case. For the same molecule, the TGI in assay [7] is above 100 µM; in assay [8] it was 41.8 µM; in assay [9], above 100 µM; in [10] it was above 100 µM.
For the molecule `O=C(/C=C/c1cccnc1)/C=C/c1cccnc1`, the GI50 was 1.75 µM in assay [1]; 2.1 µM in assay [2]; 0.547 µM in assay [3]; 3.56 µM in assay [4]; 5.1 µM in [5]; 2.32 µM in assay [6]. In addition, the GI50 in assay [7] is 4.74 µM; in [8], 1.8 µM; in assay [9], 2.33 µM; in assay [10] it was 1.91 µM. Besides, the TGI in assay [1] turned out to be 3.62 µM; in assay [2], 6.03 µM; in assay [3], 1.78 µM; in [4], 12.8 µM; in assay [5], 15.7 µM; in [6], 6.23 µM. The TGI was determined as 21.6 µM in assay [7], 7.33 µM in assay [8], 6.7 µM in assay [9] and 5.36 µM in assay [10].
On to `CCN=C(N)CSS(=O)(=O)O`, for which the TGI in assay [1], in [2], in assay [3], in assay [4], in [5] and in assay [6] was above 100 µM each time. For the same molecule, the TGI in assay [7], in assay [8], in [9] and in assay [10] was above 100 µM in each case.
As to `COc1ccc(C(=O)Nc2ccccc2)cc1[N+](=O)[O-]`, the TGI in assay [1], in assay [2], in assay [3], in assay [4], in assay [5] and in assay [6] was above 100 µM in each case. For the same molecule, the TGI in [7], in [8], in [9] and in assay [10] was above 100 µM each time.
As to `COC(=O)Oc1nn(C(=O)OC)c(=O)c2ccccc12` (tested in a mixture with another compound), the TGI in [1], in assay [2], in [3], in [4], in assay [5] and in assay [6] was above 100 µM in each case. The TGI in [7], in [8], in assay [9] and in [10] was above 100 µM in each case.
As to `C/C=C(\C)C(=O)O[C@@H]1C=CC(=O)O[C@H]1COC(=O)[C@H](C)O`, the GI50 was 16.5 µM in [1]; 9.2 µM in assay [2]; 11.5 µM in [3]; 18.1 µM in assay [4]; 14.7 µM in assay [5]; 18.7 µM in assay [6]. Also, the GI50 in assay [7] is 19 µM; in assay [8], 10.8 µM; in assay [9] it was 18.4 µM; in assay [10], 12.4 µM. The TGI was 59.4 µM in assay [1]; 21.2 µM in [2]; 25 µM in [3]; above 100 µM in assay [4]; 44.7 µM in assay [5]; 51.9 µM in [6]. The TGI turned out to be 42.1 µM in assay [7], 32 µM in assay [8], 50.6 µM in [9] and 25.5 µM in assay [10].
Regarding `Nc1nccc(C#Cc2cncnc2Nc2ccc(OCc3cccc(F)c3)c(Cl)c2)n1`, the GI50 was 5.58 µM in assay [1]; 7.69 µM in assay [2]; 3.82 µM in assay [3]; 4.94 µM in assay [4]; 4.14 µM in assay [5]; 5.99 µM in assay [6]. For the same molecule, the GI50 in [7] is 4.51 µM; in [8] it was 5.75 µM; in assay [9] it was 4.22 µM; in assay [10], 4.09 µM. The TGI in assay [1] is 14.1 µM; in [2] it was above 20.1 µM; in assay [3], 7.42 µM; in assay [4], 24.8 µM; in assay [5] it was 7.83 µM; in assay [6], above 15.6 µM. For the same molecule, the TGI is 9.85 µM in [7], above 14.3 µM in assay [8], 8.92 µM in assay [9] and 7.68 µM in [10].
Turning to `COc1ccc(Nc2nc3c(N)cc(C(F)(F)F)cc3nc2-c2ccccc2)cc1`, the TGI in assay [1], in assay [2], in assay [3], in assay [4], in assay [5] and in assay [6] was above 100 µM in each case. Moreover, the TGI in assay [7] was above 100 µM; in [8], 82.2 µM; in [9], above 100 µM; in assay [10] it was above 100 µM.
For the molecule `O=S(=O)(Nc1ccc2ccc3cccc4ccc1c2c34)c1ccccc1`, the TGI in [1], in [2], in assay [3], in [4], in [5] and in [6] was above 100 µM in each case. Besides, the TGI in assay [7], in [8], in assay [9] and in [10] was above 100 µM throughout.
Consider `Cn1cc(-c2nonc2-c2cn(C)c3ccc(Br)cc23)c2ccccc21`, for which the GI50 in assay [1] is 2.19 µM; in assay [2], 6.18 µM; in assay [3], 3.93 µM; in assay [4] it was 5.14 µM; in assay [5], 4.61 µM; in [6], 5.29 µM. The GI50 is 3.82 µM in assay [7], 1.77 µM in assay [8], 4.72 µM in assay [9] and 3.37 µM in assay [10]. The TGI in assay [1] is 6.13 µM; in [2], above 100 µM; in assay [3], above 100 µM; in assay [4] it was above 100 µM; in assay [5], above 100 µM; in assay [6], above 100 µM. Moreover, the TGI in assay [7] is above 100 µM; in assay [8], 7.71 µM; in assay [9] it was above 100 µM; in [10] it was above 100 µM.
On to `CN(C)c1ccc(N=C(C#N)c2nc(N)nc(N3CCOCC3)n2)cc1`, for which the GI50 was 21.4 µM in assay [1]; 35.6 µM in assay [2]; 32.9 µM in [3]; 38.1 µM in assay [4]; above 100 µM in [5]; 38.8 µM in [6]. In addition, the GI50 in assay [7] was above 100 µM; in [8] it was 18.7 µM; in [9], above 100 µM; in [10], 46.3 µM. In addition, the TGI in [1] is 46.1 µM; in [2] it was above 100 µM; in assay [3] it was above 100 µM; in assay [4] it was above 100 µM; in assay [5], above 100 µM; in [6], above 100 µM. The TGI was above 100 µM in assay [7], 49.4 µM in assay [8], above 100 µM in [9] and above 100 µM in [10].
Turning to `COc1cc2c(cc1OCCCN1CCN(CCCOc3cc4c(cc3OC)C(=O)C3CCC[C@H]3C=N4)CC1)N=C[C@@H]1CCCC1C2=O` (some centres undefined), the GI50 was 0.614 µM in [1]; 3.84 µM in [2]; 4.91 µM in assay [3]; 11.6 µM in [4]; 13.2 µM in assay [5]; 35.8 µM in assay [6]. For the same molecule, the GI50 in [7] was 34.2 µM; in assay [8], 24.8 µM; in assay [9], 5.42 µM; in assay [10], 6.49 µM. Besides, the TGI in assay [1] was 16.4 µM; in assay [2] it was above 100 µM; in [3], above 100 µM; in assay [4] it was above 52.3 µM; in assay [5], above 100 µM; in assay [6], above 100 µM. In addition, the TGI in [7] was above 100 µM; in [8], above 85.4 µM; in assay [9], 14.1 µM; in [10] it was 15.2 µM.
Take `O=C(Nc1ccc(Cl)cc1)C(=O)C1=C(O)c2ccccc2OC1`: the TGI in assay [1], in assay [2], in assay [3], in assay [4], in assay [5] and in assay [6] was above 100 µM each time. Besides, the TGI in assay [7], in assay [8], in [9] and in [10] was above 100 µM each time.
As to `S=c1nc(/C=C/c2ccc(Cl)c(Cl)c2)[nH][nH]1`, the TGI in assay [1], in assay [2], in assay [3], in [4], in [5] and in assay [6] was above 100 µM each time. Moreover, the TGI in [7], in assay [8], in assay [9] and in assay [10] was above 100 µM each time. For the same molecule, the GI50 in assay [8] was above 100 µM.
For `Cn1c(=O)c2c(nc3n2C(CCl)CO3)n(C)c1=O` (centres undefined), the TGI in [1], in [2], in assay [3], in assay [4], in assay [5] and in assay [7] was above 100 µM in each case. For the same molecule, the TGI in [8], in assay [9] and in assay [10] was above 100 µM throughout.
For the molecule `COc1ccc(C(NCCNC(c2ccc(OC)c(OC)c2)c2cc3c(cc2O)OCO3)c2cc3c(cc2O)OCO3)cc1OC` (centres undefined), the TGI was 6.09 µM in [1]; 4.58 µM in [2]; 7.03 µM in assay [3]; 39.1 µM in assay [5]; 32.3 µM in assay [6]; 18.7 µM in [7]. The TGI was determined as 11.5 µM in assay [8], 9.3 µM in assay [9] and 7.52 µM in assay [10].
